Measurements taken from ChEMBL document CHEMBL4266042, “Total Synthesis of Norsampsones A and B, Garcinielliptones N and O, and Hyperscabrin A” (J Nat Prod, 2018).

Legend:
Format in all cases: functional, cell-based
SNU1 = test: Cytotoxicity against human SNU1 cells after 3 to 5 days by CellTiter-Glo assay
786-0 = test: Cytotoxicity against human 786-O cells after 3 to 5 days by CellTiter-Glo assay
KMS-11 = test: Cytotoxicity against human KMS11 cells after 3 to 5 days by CellTiter-Glo assay
A549 = test: Cytotoxicity against human A549 cells after 3 to 5 days by CellTiter-Glo assay

Measured: IC50

CC(C)=CC[C@@H]1C[C@H](CC=C(C)C)C(C)(C)[C@@H](C(=O)C(C)C)C1=O
> 10 µM: all assays above

COC(=O)[C@]1(CC=C(C)C)C[C@H](CC=C(C)C)C(C)(C)[C@@H](C(=O)C(C)C)C1=O
> 10 µM: all assays above

CC(C)=CCCC(=O)[C@]1(CC=C(C)C)C[C@H](CC=C(C)C)C(C)(C)[C@@H](C(=O)c2ccccc2)C1=O
> 10 µM: all assays above

CC(C)=CC[C@@H]1C[C@H](CC=C(C)C)C(C)(C)[C@H](C(=O)C(C)C)C1=O
> 10 µM: all assays above

COC(=O)[C@]1(CC=C(C)C)C[C@H](CC=C(C)C)C(C)(C)[C@H](C(=O)C(C)C)C1=O
> 10 µM: all assays above

CC(C)=CCCC(=O)[C@]1(CC=C(C)C)C[C@H](CC=C(C)C)C(C)(C)[C@H](C(=O)c2ccccc2)C1=O
> 10 µM: all assays above

COC(=O)[C@@]1(CC=C(C)C)C[C@H](CC=C(C)C)C(C)(C)[C@H](C(=O)C(C)C)C1=O
> 10 µM: all assays above
